Molecular target: Sodium channel protein type 10 subunit alpha (Homo sapiens, UniProt Q9Y5Y9)
Assay: Inhibition of human Nav1.8 expressed in HEK cells applied electrical stimulus 10 Hz for 10 seconds measuring relaxation to the resting state followed by post stimulation by E-VIPR Assay
Assay type: cell-based

Chain of Sodium channel protein type 10 subunit alpha (Q9Y5Y9 whole entry): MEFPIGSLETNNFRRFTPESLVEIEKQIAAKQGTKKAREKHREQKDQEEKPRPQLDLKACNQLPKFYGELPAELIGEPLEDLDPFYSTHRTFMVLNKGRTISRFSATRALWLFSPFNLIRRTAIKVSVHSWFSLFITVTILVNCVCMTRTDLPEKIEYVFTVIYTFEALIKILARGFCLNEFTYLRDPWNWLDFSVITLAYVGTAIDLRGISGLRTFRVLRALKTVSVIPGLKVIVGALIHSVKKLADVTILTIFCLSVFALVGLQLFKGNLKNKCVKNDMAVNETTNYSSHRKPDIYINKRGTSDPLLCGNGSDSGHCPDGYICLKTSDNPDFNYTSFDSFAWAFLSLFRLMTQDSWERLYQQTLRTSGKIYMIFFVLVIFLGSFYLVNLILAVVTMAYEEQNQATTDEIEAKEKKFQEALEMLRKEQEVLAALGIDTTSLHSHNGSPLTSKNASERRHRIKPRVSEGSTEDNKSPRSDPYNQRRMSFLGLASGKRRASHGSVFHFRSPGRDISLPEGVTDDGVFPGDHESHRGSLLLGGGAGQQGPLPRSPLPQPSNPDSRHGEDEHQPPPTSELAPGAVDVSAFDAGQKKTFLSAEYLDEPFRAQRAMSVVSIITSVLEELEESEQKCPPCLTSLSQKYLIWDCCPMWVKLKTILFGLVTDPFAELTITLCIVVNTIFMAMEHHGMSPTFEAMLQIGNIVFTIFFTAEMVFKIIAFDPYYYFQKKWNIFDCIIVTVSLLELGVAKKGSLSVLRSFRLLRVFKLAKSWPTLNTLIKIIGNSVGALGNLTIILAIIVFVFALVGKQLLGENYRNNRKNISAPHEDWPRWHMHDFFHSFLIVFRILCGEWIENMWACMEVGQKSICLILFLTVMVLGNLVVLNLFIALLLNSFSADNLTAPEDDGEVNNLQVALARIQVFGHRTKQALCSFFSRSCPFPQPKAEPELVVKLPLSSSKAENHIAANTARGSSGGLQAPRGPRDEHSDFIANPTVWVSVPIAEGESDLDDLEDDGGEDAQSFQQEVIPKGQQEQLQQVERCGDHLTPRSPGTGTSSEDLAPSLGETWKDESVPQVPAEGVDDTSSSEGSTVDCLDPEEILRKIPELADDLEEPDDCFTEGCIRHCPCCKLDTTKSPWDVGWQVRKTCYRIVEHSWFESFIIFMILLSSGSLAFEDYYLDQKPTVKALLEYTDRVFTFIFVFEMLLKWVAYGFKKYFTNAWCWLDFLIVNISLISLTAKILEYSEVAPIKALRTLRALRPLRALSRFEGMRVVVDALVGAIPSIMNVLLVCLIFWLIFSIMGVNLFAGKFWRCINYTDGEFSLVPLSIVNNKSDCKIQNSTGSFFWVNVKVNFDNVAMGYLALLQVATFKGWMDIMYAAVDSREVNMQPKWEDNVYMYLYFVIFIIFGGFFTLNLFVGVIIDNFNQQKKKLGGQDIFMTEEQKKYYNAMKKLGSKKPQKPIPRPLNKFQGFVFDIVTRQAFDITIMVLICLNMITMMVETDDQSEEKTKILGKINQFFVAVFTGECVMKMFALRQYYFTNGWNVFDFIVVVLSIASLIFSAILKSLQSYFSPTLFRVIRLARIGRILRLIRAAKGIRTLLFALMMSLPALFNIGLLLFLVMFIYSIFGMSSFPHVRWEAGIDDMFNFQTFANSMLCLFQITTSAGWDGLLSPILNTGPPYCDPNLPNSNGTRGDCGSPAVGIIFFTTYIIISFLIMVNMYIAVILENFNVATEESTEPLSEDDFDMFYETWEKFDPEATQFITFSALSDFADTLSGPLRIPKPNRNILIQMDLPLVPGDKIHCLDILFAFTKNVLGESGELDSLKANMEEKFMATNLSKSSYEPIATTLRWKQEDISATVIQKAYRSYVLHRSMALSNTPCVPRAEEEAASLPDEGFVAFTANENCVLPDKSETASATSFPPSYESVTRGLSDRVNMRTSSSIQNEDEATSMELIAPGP

SMILES	IC50
COc1c(Cl)cc(Oc2ccc(OC(F)(F)F)c(F)c2OC)c(C(=O)Nc2ccnc(C(N)=O)c2)c1F	1.3 nM
COc1c(Oc2cc(Cl)c(C)c(F)c2C(=O)Nc2ccnc(C(N)=O)c2)ccc(OC(F)(F)F)c1F	1.4 nM
COc1c(Oc2cc(C(F)(F)F)c(C)c(F)c2C(=O)Nc2ccnc(C(N)=O)c2)ccc(OC(F)(F)F)c1F	0.8 nM
COc1cc(Oc2ccc(OC(F)(F)F)c(F)c2OC)c(C(=O)Nc2ccnc(C(N)=O)c2)c(F)c1Cl	1.7 nM
COc1cc(OC(F)(F)F)ccc1Oc1ccc(C(F)(F)F)c(C)c1C(=O)Nc1ccnc(C(N)=O)c1	4 nM
COc1cc(OC(F)(F)F)ccc1Oc1ccc(C(F)(F)F)c(Br)c1C(=O)Nc1ccnc(C(N)=O)c1	2 nM
COc1c(Oc2ccc(Cl)c(F)c2C(=O)Nc2ccnc(C(N)=O)c2)ccc(OC(F)(F)F)c1F	2.3 nM
COc1c(Oc2ccc(C(F)(F)F)c(C)c2C(=O)Nc2ccnc(C(N)=O)c2)ccc(OC(F)(F)F)c1F	3 nM
COc1cc(OC(F)(F)F)ccc1Oc1cc(OC)c(C(F)(F)F)c(F)c1C(=O)Nc1ccnc(C(N)=O)c1	1.8 nM
COc1cc(OC(F)(F)F)ccc1Oc1ccc(C(F)(F)F)c(Cl)c1C(=O)Nc1ccnc(C(N)=O)c1	2 nM
COc1c(Oc2cc(C(F)(F)F)c(OC)c(F)c2C(=O)Nc2ccnc(C(N)=O)c2)ccc(OC(F)(F)F)c1F	1.6 nM
COc1cc(Oc2ccc(OC(F)(F)F)c(F)c2OC)c(C(=O)Nc2ccnc(C(N)=O)c2)c(F)c1C(F)(F)F	0.4 nM
